Test results reported in patent US7732199B2, “Process for making transplantable cardiomyocytes from human embryonic stem cells” (Geron Corporation, priority 2001, dated 2010).

Legend:
[1] = tested on: hES cells of the H1 or H9 line being cultured as embryoid bodies
[2] = tested on: Undifferentiated hES cells of the H7 line; assay: Direct differentiation of plated hES cells to contracting cardiomyocytes; type: cell-based, human; settings: 10 μM at day 10-12 or 12-14; no embryoid body stage
Description: Cardiomyocyte differentiation was also achieved in a direct differentiation paradigm. Undifferentiated hES cells of the H7 line were dissociated and plated directly onto gelatin-coated plates without going through an embryoid body stage. The plated cells were cultured in differentiation medium (80% KO-DMEM, 1 mM L-glutamine, 0.1 mM β-mercaptoethanol, 1% amino acids, and 20% fetal bovine serum). Contracting cardiomyocytes were found at day 18 in cultures treated with 10 μM 5-aza-deoxy-cytidine at day 10-12 or 12-14, and at later times in all cultures.

[3] = tested on: hES-derived cardiomyocytes; assay: Pharmacological response: contraction rate of beating areas of hES-derived cardiomyocytes; type: cell-based, human; settings: for chronotropic effect: FIG. 5 Panels B to E
Description: EBs were plated on to gelatin-coated 24-well plates and allowed to differentiate, as in Example 2. Contracting cardiomyocytes at differentiation day 15-21 were used for examining pharmacological response. The frequency of the spontaneous beating was measured by counting the contraction rate of the beating areas maintained in the differentiation medium in a 37° C. heating chamber of an inverted microscope. The cells were then incubated with test compounds in the incubator for 20-30 min, and observed for contraction rate. Dose-dependent effects were determined by cumulatively applying of increasing concentrations of each substrate. Data represent the mean pulsation rate±standard error of the mean measured on 10-20 beating areas.
Differentiated cells were incubated with various concentrations of the drug and the number of beats per minute was counted. The cells were then washed with medium, maintained in differentiation medium for 24 h and observed for the time taken to recover contractility.

[4] = tested on: cardiomyogenic cell line developed from bone marrow stroma; settings: treated for 24 hours; cited from earlier work

With `Nc1ncn([C@H]2C[C@H](O)[C@@H](CO)O2)c(=O)n1` [5-aza-deoxy-cytidine] the “proportion of beating areas in the culture” value ([1]; 1 to 10 μM at day 6-8) was “increased”, the “expression of cardiac α-MHC (ratio of αMHC to 18S RNA)” value ([1]; 1 to 10 μM at day 6-8, harvested at day 15) was “significantly increased” and the “day at which contracting cardiomyocytes were found” value [2] was 18 days.
In the case of `CNC[C@H](O)c1cccc(O)c1` [phenylephrine], the chronotropic effect [3] is reported as “positive chronotropic effects”.
For `C[S+](C)[O-]` [DMSO, dimethyl sulfoxide], the “toxicity to the cells” value [1] was “toxic”, the “beating areas compared with non-treated cultures” value ([1]; 0.5% from days 0-4) was “fewer” and the beating cells ([1]; 0.8% or 1%) was “absent”. For the same compound, the “α-MHC expression compared with untreated cultures” value ([1]; DMSO treatment) was “significant reduction”.
With `COc1ccc([C@@H]2Sc3ccccc3N(CCN(C)C)C(=O)[C@@H]2OC(C)=O)cc1` [diltiazem] the “beating areas that stopped contraction” value ([3]; 10^−5 M) was 100%, the “time until contraction recovered to normal levels after removal of the drug” value ([3]; cells washed and kept in differentiation medium) was 24 to 48 h and the beating rate ([3]; various concentrations, incubated 20-30 min, differentiation day 15-21, FIG. 5 Panel A) was “inhibited”.
In the case of `CC(C)NCC(O)c1ccc(O)c(O)c1` (stereo not shown) [isoprenaline], the chronotropic effect [3] is reported as “positive chronotropic effects”.
With `CC(C)(C)NCC(O)c1cc(Cl)c(N)c(Cl)c1` (stereo not shown) [clenbuterol] the “beating rate after treatment” value ([3]; 1-10 nM, cells taken at Day 72, from about 72 beats/min, p<0.005) was “about 98 beats/min”.
For `CC1=C(/C=C/C(C)=C/C=C/C(C)=C/C(=O)O)C(C)(C)CCC1` [RA, all-trans retinoic acid], the “toxicity to the cells” value [1] was “toxic” and the “beating cells compared with untreated cultures” value ([1]; doses between 10^−9 and 10^−5 M, at days 4-8, 8-15, or 4-15) was “no increase”.
In the case of `Nc1ncn([C@@H]2O[C@H](CO)[C@@H](O)[C@H]2O)c(=O)n1` [5-azacytidine], the “cells forming myotube-like structures, acquiring cardiomyocyte markers and beginning to beat” value [4] is listed as 30%.
